Patent publication US20100197789A1, “ANTI-OBESITY AGENT AND USE THEREOF” (National University Corporation Nagoya University, priority 2006, published 2010)

Assays:
db/db mice [1] = assay: Food intake amount and body weight, 5 week-continuous oral administration in drinking water, db/db mice; assay type: in vivo, mouse; details: enantiomer 1.1 mg/dl in drinking water, oral, 5 weeks; for body weight increase / food intake amount: vs control
Protocol: 5 week-old male C57BL/KsJ-db/db mice (db/db mice: body weight 19 to 25 g, Japan SLC, Inc.) were purchased and individually fed in tip cages. For the db/db mice, normal pellet diet (CE-2) was administered under free water intake and free food intake. A body weight and a food intake amount over 24 hours were measured every day from the start of feeding. On day 3 after the start of feeding, blood was taken from an orbit after 6 hour-fasting and a blood glucose level and a blood insulin concentration were measured. The db/db mice were divided into three groups (10 mice per each group) so that a body weight, a 24 hour-food intake amount, a blood glucose level, and a blood insulin concentration were equal, and defined to be a control group, a low concentration baclofen treated group, and a high concentration baclofen treated group. After division into the groups, from day 5 after the start of feeding, (±)-baclofen was dissolved in drinking water and 5 week-continuous oral administration to the baclofen treated groups was started. (±)-baclofen was dissolved in drinking water at a concentration of 1.1 mg/dl in the low concentration treated group and at a concentration of 2.7 mg/dl in the high concentration treated group. A food intake amount and a body weight were measured over time during the period of 5 week-administration of (±)-baclofen, blood was taken after the end of the 5-week administration, and the db/db mice were sacrificed by cervical luxation. Brains, epididymal white adipose tissues, subcutaneous white adipose tissues and brown adipose tissues were surgically removed. The brains and brown adipose tissues were frozen in dry ice and liquid nitrogen immediately after the removal and then preserved at −80° C. The epididymal white adipose tissues and subcutaneous white adipose tissues were measured in weights, and then fixed in 4% formaldehyde and preserved at 4° C.
5 week-old male C57BL/KsJ-db/db mice (db/db mice: body weight 19 to 25 g, Japan SLC, Inc.) were purchased and individually fed in tip cages. For the db/db mice, normal pellet diet (CE-2) was administered under free water intake and free food intake. A body weight and a food intake amount over 24 hours were measured everyday from the start of feeding. On day 3 after the start of feeding, blood was taken from an orbit after 6 hour-fasting and a blood glucose level and a blood insulin concentration were measured. […] After division into the groups, from day 5 after the start of feeding, R-baclofen and S-baclofen were dissolved in drinking water and 5 week-continuous oral administration was started. […] A food intake amount and a body weight were measured over time, and a rectal temperature was measured 5 weeks after the start of the administration. Blood was taken after the 5-week administration of baclofen, and the db/db mice were sacrificed by cervical luxation.
5 week-old male C57BL/KsJ-db/db mice (db/db mice: body weight 19 to 25 g, Japan SLC, Inc.) were purchased and individually fed in tip cages. Normal pellet diet (CE-2) was administered to the db/db mice under free water intake and free food intake. A body weight and a food intake amount over 24 hours were measured every day from the start of feeding. On day 3 after the start of feeding, blood was taken from an orbit after 6 hour-fasting, and a blood glucose level and a blood insulin concentration were measured. The db/db mice were divided into five groups (10 mice per each group) so that a body weight, a 24 hour-food intake amount, a blood glucose level, and a blood insulin concentration were equal, and defined to be a control group and baclofen treated groups. (±)-baclofen was dissolved in drinking water at respective concentrations of 4×10^−6 M, 10×10^−6 M, 40×10^−6 M, and 100×10^−6 M, and continuously orally administered to the baclofen treated groups for 5 weeks. A food intake amount, a body weight and a water-drinking amount were measured over time during the period of 5 week-administration of (±)-baclofen. […]

db/db mice [2] = assay: Rectal temperature, oxygen consumption and motor activity, db/db mice; assay type: in vivo, mouse; details: enantiomer 1.1 mg/dl in drinking water for 5 weeks, measured at 20 o'clock for 3 days
Protocol: 5 week-old male C57BL/KsJ-db/db mice (db/db mice: body weight 19 to 25 g, Japan SLC, Inc.) were purchased and individually fed in tip cages. For the db/db mice, normal pellet diet (CE-2) was administered under free water intake and free food intake. A body weight and a food intake amount over 24 hours were measured everyday from the start of feeding. On day 3 after the start of feeding, blood was taken from an orbit after 6 hour-fasting and a blood glucose level and a blood insulin concentration were measured. The db/db mice were divided into three groups (10 mice per each group) so that a body weight, a 24 hour-food intake amount, a blood glucose level, and a blood insulin concentration were equal, and defined to be a control group, an R-baclofen treated group, and an S-baclofen treated group. […] After division into the groups, from day 5 after the start of feeding, R-baclofen and S-baclofen were dissolved in drinking water and 5 week-continuous oral administration was started. Both of R-baclofen and S-baclofen were dissolved in drinking water at a concentration of 1.1 mg/dl used in the low concentration treated group in the experiment of baclofen racemic mixture administration. A food intake amount and a body weight were measured over time, and a rectal temperature was measured 5 weeks after the start of the administration. Blood was taken after the 5-week administration of baclofen, and the db/db mice were sacrificed by cervical luxation.
R-baclofen and S-baclofen were administered to db/db/mice and (±)-baclofen was administered to db/^+m mice respectively for 5 weeks, and rectal temperatures were then continuously measured for 3 days at 20 o'clock immediately before the dark period when feed intake was started in the mice. The method of measuring rectal temperatures was as follows. That is, the rectal temperatures were measured by using a digital thermistor (manufactured by NATSUME SEISAKUSHO CO., LTD.).
(±)-baclofen was orally administered to db/db mice and DIO mice for 5 weeks and rectal temperatures were measured 5 weeks after the start of the administration, and oxygen consumptions and motor activity were measured by using a small animal metabolism measuring system (model MK-5000: Muromachi Kikai Co., Ltd.).

SMILES | time after start of administration from which body weight increase suppression was significant (db/db mice [1]) [weeks] | time after start of administration from which food intake suppression was significant (db/db mice [1]) [weeks] | body weight increase (db/db mice [1]) | food intake amount (db/db mice [1]) | rectal temperature (db/db mice [2])
Cl.NC[C@H](CC(=O)O)c1ccc(Cl)cc1 [R-baclofen, R(+)-Baclofen hydrochloride] | 2 | 2 | significantly suppressed | significantly suppressed | significantly increased
Cl.NC[C@@H](CC(=O)O)c1ccc(Cl)cc1 [S-baclofen, S(−)-Baclofen hydrochloride] | 5 | 5 | significant suppression | significant suppression | significantly increased
